Measurements: patent publication US5705492A, “3'-O-aminoacyl ARA uridines, method of making, and antiviral activity” (Hoffmann-La Roche Inc., priority 1995, dated 1998)
Where a name gives a salt, the structure may show the parent alone.

Columns and labels:
HSV-2 thymidine kinase = HSV-2 thymidine kinase (Human herpesvirus 2, UniProt P04407); test: inhibition of HSV-2 thymidine kinase; format: biochemical; conditions: 3H-thymidine phosphorylation, 37° C., 30 minutes, pH 8; read-out: IC50 against HSV-2 thymidine kinase
Protocol: (§1) In this test procedure, the assay mixture contains 50 mmol Tris HCl, pH 8, 5 mmol magnesium chloride, 5 mmol ATP, 0.3 μmol ^3 H-thymidine (50 Ci/mmol), suitably diluted enzyme preparation and various concentrations of test compounds in a total volume of 100 μl. Assays are incubated at 37° C. for 30 minutes and the reaction is terminated by immersion in a boiling water bath for 2 minutes. 85 μl aliquots from each assay are then dried on to DEAE-cellulose paper discs and the unphosphorylated ^3 H-thymidine is removed by washing in 4 mmol ammonium formate. The radioactivity remaining bound to the discs is then measured by scintillation spectrophotometry. The degree of inhibition at each concentration of test compound is expressed as a percentage of the control reaction (100%) after subtracting a measured blank value which represents the amount of radioactivity bound to the disc from a reaction containing heat-inactivated enzymes. The IC50 value, namely the concentration of test compound which inhibits enzyme activity by 50%, is then calculated.

HSV-1 thymidine kinase = HSV-1 thymidine kinase (Human herpesvirus 1, UniProt P0DTH5); test: inhibition of HSV-1 thymidine kinase; format: biochemical; conditions: 3H-thymidine phosphorylation, 37° C., 30 minutes, pH 8; read-out: IC50 against HSV-1 thymidine kinase
Protocol: as §1

Sequence of HSV-1 thymidine kinase (P0DTH5 whole entry): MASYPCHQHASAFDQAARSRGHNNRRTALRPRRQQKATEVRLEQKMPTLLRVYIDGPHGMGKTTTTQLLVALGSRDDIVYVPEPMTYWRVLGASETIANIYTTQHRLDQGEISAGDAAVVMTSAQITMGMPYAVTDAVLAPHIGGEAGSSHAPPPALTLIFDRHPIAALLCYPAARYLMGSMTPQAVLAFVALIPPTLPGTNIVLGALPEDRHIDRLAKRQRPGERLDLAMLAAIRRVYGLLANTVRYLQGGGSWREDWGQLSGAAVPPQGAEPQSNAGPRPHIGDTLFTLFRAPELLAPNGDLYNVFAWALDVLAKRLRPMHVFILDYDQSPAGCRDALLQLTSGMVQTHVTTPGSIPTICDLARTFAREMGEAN
Sequence of HSV-2 thymidine kinase (P04407 whole entry): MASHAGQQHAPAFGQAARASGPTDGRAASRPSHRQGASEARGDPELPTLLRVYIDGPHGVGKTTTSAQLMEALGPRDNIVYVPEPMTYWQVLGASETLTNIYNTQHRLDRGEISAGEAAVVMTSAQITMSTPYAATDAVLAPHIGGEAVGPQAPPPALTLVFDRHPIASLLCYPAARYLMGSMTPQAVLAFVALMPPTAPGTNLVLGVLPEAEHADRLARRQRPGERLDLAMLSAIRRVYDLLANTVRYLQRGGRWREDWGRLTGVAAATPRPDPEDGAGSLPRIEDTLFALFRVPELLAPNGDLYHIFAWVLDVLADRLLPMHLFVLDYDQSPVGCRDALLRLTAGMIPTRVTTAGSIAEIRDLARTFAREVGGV

`CCc1cn([C@@H]2O[C@H](CNC(=O)[C@H](C)Oc3cc(OC)c(Cl)cc3Cl)[C@@H](OC(=O)[C@@H](N)C(C)C)[C@@H]2F)c(=O)[nH]c1=O` [Example 1, 1-[5-[2(S)-(2,4-dichloro-5-methoxyphenoxy)propionamido]-1,5-dideoxy-2-fluoro-3-O-L-valyl-β-D-arabinofuranosyl]-5-ethyluracil hydrochloride] showed an IC50 (HSV-2 thymidine kinase) of 1.1 nM and an IC50 (HSV-1 thymidine kinase) of 18 nM.
